Experimental data reported in PubChem BioAssay (NCI).
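All cell lines were grown in 96-well plates and treated with compound for 48 hours. The concentration for full growth arrest is given as TGI.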

What was measured:
Assay in all cases: inhibition of tumour cell growth, NCI panel, 48 h
[1] = test system: 786-0 renal
[2] = test system: A498 renal
[3] = test system: A549 NSCLC
[4] = test system: ACHN renal
[5] = test system: BT-549 breast
[6] = test system: CAKI-1 renal
[7] = test system: CCRF-CEM leukemia
[8] = test system: COLO 205 colon
[9] = test system: DU-145 prostate
[10] = test system: EKVX NSCLC
[11] = test system: HCC-2998 colon
[12] = test system: HCT-116 colon
[13] = test system: HCT-15 colon
[14] = test system: HL-60(TB) leukemia
[15] = test system: HOP-62 NSCLC
[16] = test system: HOP-92 NSCLC
[17] = test system: HS 578T breast
[18] = test system: HT29 colon
[19] = test system: IGROV1 ovarian
[20] = test system: K-562 leukemia
[21] = test system: KM12 colon
[22] = test system: LOX IMVI melanoma
[23] = test system: M14 melanoma
[24] = test system: MCF7 breast
[25] = test system: MDA-MB-231 breast
[26] = test system: MDA-MB-435
[27] = test system: MDA-N
[28] = test system: MOLT-4 leukemia
[29] = test system: NCI-H226 lung
[30] = test system: NCI-H23 lung
[31] = test system: NCI-H460 lung
[32] = test system: NCI-H522 lung
[33] = test system: NCI/ADR-RES ovarian
[34] = test system: OVCAR-3 ovarian
[35] = test system: OVCAR-5 ovarian
[36] = test system: PC-3 prostate
[37] = test system: RPMI-8226 leukemia
[38] = test system: RXF 393 renal
[39] = test system: SF-268 CNS
[40] = test system: SF-295 CNS
[41] = test system: SF-539 CNS
[42] = test system: SK-MEL-2 melanoma
[43] = test system: SK-MEL-28 melanoma
[44] = test system: SK-MEL-5 melanoma
[45] = test system: SK-OV-3 ovarian
[46] = test system: SN12C renal
[47] = test system: SNB-19 CNS
[48] = test system: SNB-75 CNS
[49] = test system: SR leukemia
[50] = test system: SW-620 colon
[51] = test system: T-47D breast
[52] = test system: TK-10 renal
[53] = test system: U251 CNS
[54] = test system: UACC-257 melanoma
[55] = test system: UACC-62 melanoma
[56] = test system: UO-31 renal
[57] = test system: MALME-3M melanoma
[58] = test system: OVCAR-4 ovarian
[59] = test system: OVCAR-8 ovarian

O=C(CCc1ccc(O)c(O)c1)NCCc1cc(O)cc(OCc2ccccc2)c1
TGI [1]: > 100 µM
TGI [2]: > 100 µM
TGI [3]: > 100 µM
TGI [4]: 46.9 µM
TGI [5]: 86 µM
TGI [6]: > 100 µM
TGI [7]: 75.9 µM
TGI [8]: > 100 µM
TGI [9]: > 100 µM
TGI [10]: > 100 µM
TGI [11]: 40.7 µM
TGI [12]: > 100 µM
TGI [13]: 58.4 µM
TGI [14]: 38.2 µM
TGI [15]: > 100 µM
TGI [16]: > 100 µM
TGI [17]: > 100 µM
TGI [18]: > 100 µM
TGI [19]: > 100 µM
TGI [20]: > 100 µM
TGI [21]: > 100 µM
TGI [22]: > 100 µM
TGI [23]: > 100 µM
TGI [24]: > 100 µM
TGI [25]: > 100 µM
TGI [26]: > 100 µM
TGI [27]: 58.7 µM
TGI [28]: > 100 µM
TGI [29]: > 100 µM
TGI [30]: 80 µM
TGI [31]: 51.7 µM
TGI [32]: > 100 µM
TGI [33]: > 100 µM
TGI [34]: > 100 µM
TGI [35]: > 100 µM
TGI [36]: > 100 µM
TGI [37]: > 100 µM
TGI [38]: > 100 µM
TGI [39]: > 100 µM
TGI [40]: > 100 µM
TGI [41]: > 100 µM
TGI [42]: > 100 µM
TGI [43]: > 100 µM
TGI [44]: 32.2 µM
TGI [45]: > 100 µM
TGI [46]: > 100 µM
TGI [47]: 36.7 µM
TGI [48]: > 100 µM
TGI [49]: 83.4 µM
TGI [50]: > 100 µM
TGI [51]: > 100 µM
TGI [52]: > 100 µM
TGI [53]: > 100 µM
TGI [54]: > 100 µM
TGI [55]: > 100 µM
TGI [56]: 71 µM

O=C1CC2(CCC(O)(c3ccccc3)C(C(=O)c3ccccc3)C2)C(=O)c2ccccc2N1 (stereo unspecified)
TGI [2]: > 100 µM
TGI [3]: > 100 µM
TGI [5]: > 100 µM
TGI [6]: > 100 µM
TGI [7]: > 100 µM
TGI [8]: > 100 µM
TGI [9]: > 100 µM
TGI [10]: > 100 µM
TGI [11]: > 100 µM
TGI [12]: > 100 µM
TGI [13]: > 100 µM
TGI [14]: > 100 µM
TGI [15]: > 100 µM
TGI [16]: > 100 µM
TGI [17]: > 100 µM
TGI [18]: > 100 µM
TGI [19]: > 100 µM
TGI [20]: > 100 µM
TGI [22]: > 100 µM
TGI [23]: > 100 µM
TGI [57]: > 100 µM
TGI [24]: > 100 µM
TGI [25]: > 100 µM
TGI [26]: > 100 µM
TGI [27]: > 100 µM
TGI [28]: > 100 µM
TGI [29]: > 100 µM
TGI [30]: > 100 µM
TGI [31]: > 100 µM
TGI [33]: > 100 µM
TGI [34]: > 100 µM
TGI [58]: > 100 µM
TGI [35]: > 100 µM
TGI [59]: > 100 µM
TGI [36]: > 100 µM
TGI [38]: > 100 µM
TGI [39]: > 100 µM
TGI [40]: > 100 µM
TGI [41]: > 100 µM
TGI [42]: > 100 µM
TGI [43]: > 100 µM
TGI [44]: > 100 µM
TGI [45]: > 100 µM
TGI [46]: > 100 µM
TGI [47]: > 100 µM
TGI [48]: > 100 µM
TGI [49]: > 100 µM
TGI [50]: > 100 µM
TGI [51]: > 100 µM
TGI [52]: > 100 µM
TGI [53]: > 100 µM
TGI [54]: > 100 µM
TGI [55]: > 100 µM
TGI [56]: > 100 µM

O=C1c2cc3ccccc3cc2C2(c3ccc(Cl)cc3)NCCN12 (stereo unspecified)
TGI [1]: 99.2 µM
TGI [2]: > 100 µM
TGI [3]: 87.4 µM
TGI [4]: > 100 µM
TGI [5]: > 100 µM
TGI [6]: > 100 µM
TGI [7]: > 100 µM
TGI [8]: 36.3 µM
TGI [9]: > 100 µM
TGI [10]: 95.9 µM
TGI [11]: 60.4 µM
TGI [12]: 45 µM
TGI [13]: > 100 µM
TGI [14]: 80 µM
TGI [15]: 86.3 µM
TGI [16]: > 100 µM
TGI [17]: > 100 µM
TGI [18]: > 100 µM
TGI [19]: > 100 µM
TGI [20]: > 100 µM
TGI [21]: 49.3 µM
TGI [22]: 56.3 µM
TGI [23]: 92.7 µM
TGI [24]: 77.9 µM
TGI [25]: > 100 µM
TGI [26]: > 100 µM
TGI [27]: > 100 µM
TGI [28]: > 100 µM
TGI [29]: > 100 µM
TGI [30]: 64.1 µM
TGI [31]: > 100 µM
TGI [33]: > 100 µM
TGI [34]: 53.8 µM
TGI [58]: > 100 µM
TGI [35]: 81 µM
TGI [59]: > 100 µM
TGI [36]: 94.9 µM
TGI [37]: 98.2 µM
TGI [38]: 42.3 µM
TGI [39]: > 100 µM
TGI [40]: 62 µM
TGI [41]: 61.5 µM
TGI [42]: 45.5 µM
TGI [43]: > 100 µM
TGI [44]: 40.4 µM
TGI [45]: 68.9 µM
TGI [46]: > 100 µM
TGI [47]: 68.9 µM
TGI [48]: > 100 µM
TGI [49]: > 100 µM
TGI [50]: > 100 µM
TGI [51]: > 100 µM
TGI [52]: > 100 µM
TGI [53]: > 100 µM
TGI [54]: > 100 µM
TGI [55]: 55.4 µM
TGI [56]: > 100 µM

O=C(Nc1ccccc1)c1cc(S(=O)(=O)n2cc[nH]c2=O)c(S)cc1Cl
TGI [1]: > 100 µM
TGI [2]: > 100 µM
TGI [3]: > 100 µM
TGI [4]: > 100 µM
TGI [5]: > 100 µM
TGI [6]: > 100 µM
TGI [7]: > 100 µM
TGI [8]: > 100 µM
TGI [9]: > 100 µM
TGI [10]: > 100 µM
TGI [11]: > 100 µM
TGI [12]: > 100 µM
TGI [13]: > 100 µM
TGI [14]: > 100 µM
TGI [15]: > 100 µM
TGI [16]: > 100 µM
TGI [17]: > 100 µM
TGI [18]: > 100 µM
TGI [19]: > 100 µM
TGI [20]: > 100 µM
TGI [21]: > 100 µM
TGI [22]: > 100 µM
TGI [23]: > 100 µM
TGI [24]: > 100 µM
TGI [25]: > 100 µM
TGI [26]: > 100 µM
TGI [27]: > 100 µM
TGI [28]: > 100 µM
TGI [29]: > 100 µM
TGI [30]: > 100 µM
TGI [31]: > 100 µM
TGI [32]: > 100 µM
TGI [33]: > 100 µM
TGI [34]: > 100 µM
TGI [35]: > 100 µM
TGI [59]: > 100 µM
TGI [36]: > 100 µM
TGI [37]: > 100 µM
TGI [38]: > 100 µM
TGI [39]: > 100 µM
TGI [40]: > 100 µM
TGI [41]: > 100 µM
TGI [42]: > 100 µM
TGI [43]: > 100 µM
TGI [44]: > 100 µM
TGI [46]: > 100 µM
TGI [47]: > 100 µM
TGI [48]: 97.5 µM
TGI [49]: > 100 µM
TGI [50]: > 100 µM
TGI [51]: > 100 µM
TGI [52]: > 100 µM
TGI [53]: > 100 µM
TGI [54]: > 100 µM
TGI [55]: > 100 µM
TGI [56]: > 100 µM

CN1CCN(CC(=O)N2c3ccccc3Sc3cc4ccccc4cc32)CC1
TGI [1]: 26.8 µM
TGI [2]: 27.9 µM
TGI [3]: 30.3 µM
TGI [4]: 30.3 µM
TGI [5]: 30.2 µM
TGI [6]: 26 µM
TGI [7]: 83.6 µM
TGI [8]: 36.2 µM
TGI [9]: 29.3 µM
TGI [10]: 25.5 µM
TGI [12]: 22.2 µM
TGI [13]: 34.7 µM
TGI [14]: 4.55 µM
TGI [15]: 33 µM
TGI [16]: 24.6 µM
TGI [17]: 28.3 µM
TGI [18]: 16.4 µM
TGI [19]: 32.8 µM
TGI [20]: 33.6 µM
TGI [21]: 31.8 µM
TGI [22]: 33.4 µM
TGI [23]: 29 µM
TGI [57]: 28.4 µM
TGI [24]: 31.6 µM
TGI [25]: 27.7 µM
TGI [26]: 23.7 µM
TGI [27]: 22.4 µM
TGI [28]: 28.4 µM
TGI [29]: 42.8 µM
TGI [30]: 40.1 µM
TGI [31]: 32.8 µM
TGI [32]: 31.9 µM
TGI [33]: 34.4 µM
TGI [34]: 26.1 µM
TGI [58]: 29.1 µM
TGI [35]: 29.8 µM
TGI [59]: 36.5 µM
TGI [36]: 27.6 µM
TGI [37]: 34.1 µM
TGI [38]: 27 µM
TGI [39]: 25.6 µM
TGI [40]: 28.3 µM
TGI [41]: 30.9 µM
TGI [42]: 31.9 µM
TGI [43]: 28.9 µM
TGI [44]: 34.7 µM
TGI [45]: 30.3 µM
TGI [46]: 25.2 µM
TGI [47]: 35.3 µM
TGI [48]: 27.8 µM
TGI [49]: 31.2 µM
TGI [50]: 50.9 µM
TGI [51]: 46.1 µM
TGI [52]: 29.5 µM
TGI [53]: 28.7 µM
TGI [54]: 24.5 µM
TGI [55]: 31.6 µM
TGI [56]: 26.7 µM
